What all share (assay type): cell-based
Test [1] has as its system Human neonatal fibroblasts (nFIB). Nature of the test: In vitro incisional wound model, fibroblast migration. The following applies: versus control, in words. As for the experimental part:
(§1) The proliferation and migration of keratinocytes and fibroblasts are paramount to the restoration of the cutaneous architecture. […] To test the effect of Q10 on neonatal fibroblasts and keratinocytes, an in vitro incisional wound model was employed. Cells were seeded in 6-well tissue culture plates with supplemented media and incubated for 48 hours to facilitate a 90% confluency level prior to experimentation. A cross-shaped “wound” gap was made among the near confluent monolayer of cells in the center of each well. Detached cells were then washed off with medium. Each well was then replenished with medium with or without Q10. […] Cell migration was quantified by time and percentage of “wound” gap covered by cells that migrated into the gap field. The percentage of gap filled (PGf) was calculated as PGf=(1−At/A0)×100, where At is the gap area at time t, and A0 is the gap area at time 0. […]
(§2) Human neonatal fibroblasts (nFIB) and human neonatal keratinocytes (SC-KC) were grown to ˜90% confluency in T-75 flasks at which time they were trypsinized and seeded into 6-well tissue culture plates. […] Cell migration was quantified by time and percentage of “wound” gap covered by cells that migrated into the gap field. The percentage of gap filled (PGf) was calculated as PGf=(1−At/A0)×100, where A(t) is the gap area at time t, and A(0) is the gap area at time 0. […]

Test [2] has as its system human neonatal keratinocytes (SC-KC). Nature of the test: In vitro incisional wound model, keratinocyte migration. The settings on record: versus control, in words. As for the experimental part:
as §1, §2

For test [3], the system named is Human Aortic Smooth Muscle Cells (HASMC). Nature of the test: HASMC proliferation, Coulter cell count. The following applies: for Cell number: 24 h incubation, HASMC; for % Diff vs. Ctrl (24 hr): HASMC cell number. The procedure:
At approximately 80% confluency, the cells were subcultured using Trypsin-EDTA to detach the cells and Defined Trypsin Inhibitor, DTI to neutralize the cell suspension before centrifugation at 2500 RPM for 8 minutes. The supernatant was aspirated and discarded. The resultant cell pellet was then resuspended in fresh Medium 231. A cell count was performed using a hemocytometer before seeding the experimental 6-well plates at 200,000 cells/well.
Q10 was dissolved in ethanol and the solution was diluted with Medium 231 to the required concentrations. The Vehicle used in preparing the composition comprising about 0.001% to about 60% (w/w) Coenzyme Q10 was composed of MCT, BHT, Glycerol, and Sodium Phosphate buffered to pH 7.2 and subjected to sonication, then diluted with Medium 231 to experimental concentrations.
(§3) D-(+)-Glucose at 10 mM (Peiro et al., Brit. Jour. of Pharmacology 133: 967-974 (2001)) was used as an energy substrate for the production of ATP. The wells of the 6-well plate were incubated with 0-20 μg/ml of CoQ10, 1 μg and 20 μg/ml CoQ10, or 1 μg and 20 μg/ml of the Vehicle of Coenzyme Q10, all in Medium 231. The well plates were incubated at 37° C. and 5% CO2 for specified experimental periods. Medium 231 contains 4.6 mM Glu originally, thus only an additional 5.4 mM added to medium (Dr. Gary D. Shipley, Cascade Biologics, Portland, Oreg.).
The well-plates were decanted to empty the wells of the reagents and any residue was aspirated carefully with an electronic pipettor. 0.5 ml Trypsin-EDTA was added to each well for 5-7 minutes to aid detachment. Upon complete detachment as determined under a microscope, 0.5 ml Medium 231 was added to the resultant cell suspension to neutralize the Trypsin. 0.5 ml of this cell suspension was taken for reading in a Coulter cell counter.
In FIG. 2, HASM Cells were incubated at 37° C. and 5% CO2 with 0-20 μg/ml Coenzyme Q10, The composition comprising about 0.001% to about 60% (w/w) Coenzyme Q10, and the Vehicle(V) used in The composition comprising about 0.001% to about 60% (w/w) Coenzyme Q10. The 6-well plates were incubated for 24 h in Medium 231. After treatment with Trypsin-EDTA and gentle scraping, cells were neutralized with Medium 231 and mixed by pipetting. Samples were then taken for quantification using a Coulter cell counter. (*Significant compared to Ctrl, P<0.05; One-way ANOVA and Dunnett's).

Test [4] has as its system human neonatal keratinocytes (SC-KC). Briefly: Keratinocyte proliferation. The settings on record: in words. The source says:
(§4) FIGS. 7-10 show the results obtained.

Test [5] deals with Human Aortic Smooth Muscle Cells (HASMC). Nature of the test: ATP production in HASMC, Luciferin-Luciferase ATP assay. The following applies: 0-20 μg/ml, 24 h, in words. The procedure:
We have investigated the effect of Q10 on ATP production in Human Aortic Smooth Muscle Cells (HASMC). This cell line was chosen for the study based on its ability to produce ATP at levels detectable by the Luciferin-Luciferase ATP assay. We also studied the effect of The composition comprising about 0.001% to about 60% (w/w) Coenzyme Q10 on Muscle Cell proliferation.
as §3
After incubation, the medium was removed and replaced with cold (4° C.) 1% w/v Trichloroacetic Acid (TCA) as the lysis buffer. This buffer causes almost instantaneous inhibition of ATPases (Kangas et al., Med Biol 62: 338-343 (1984)). The wells were incubated with TCA at room temperature for 5 min with gentle swirling. […]
HASM Cells were incubated at 37° C. and 5% CO2 with 0-20 μg/ml Coenzyme Q10. […] Samples were then taken for quantification of ATP using the Luciferin-Luciferase ATP Assay. […]

In test [6] the test system is Human neonatal fibroblasts (nFIB). Briefly: Fibroblast proliferation. The following applies: in words.
Source text: as §4

Structures are written as SMILES.

Turning to `COC1=C(OC)C(=O)C(C/C=C(\C)CC/C=C(\C)CC/C=C(\C)CC/C=C(\C)CC/C=C(\C)CC/C=C(\C)CC/C=C(\C)CC/C=C(\C)CC/C=C(\C)CCC=C(C)C)=C(C)C1=O` [Q-10, 2,3-dimethoxy-5-methyl-6-decaprenyl-1,4-benzoquinone], the “Fibroblast migration (rate of gap coverage)” value was “statistically significant increase in the rate of gap coverage” in test [1]; “enhances the migration and proliferation” in test [1] (listed as coenzyme Q10). Also, the “Keratinocyte migration (rate of gap coverage)” value in test [2] was “statistically significant increase in the rate of gap coverage”; in test [2] (listed as coenzyme Q10), “enhances the migration and proliferation”. Moreover, the Cell number in test [3] (1.0 μg/ml) is listed as 42.4 10^4; in test [3] (20.0 μg/ml), 63.1 10^4. In addition, the “% Diff vs. Ctrl (24 hr)” value in test [3] (1.0 μg/ml) is listed as 65.1%; in test [3] (20.0 μg/ml) it was 145.6%. The Keratinocyte proliferation result in test [4] is “enhances the migration and proliferation”. The “Effect on ATP production” value is reported as “increases ATP production” in test [5] and “stimulatory effect on ATP production” in test [5] (listed as Coenzyme Q10). For the same molecule, the Fibroblast proliferation result in test [6] was “enhances the migration and proliferation”.

Values taken from US10583098B2, “Topical co-enzyme Q10 formulations and treatment of pain, fatigue and wounds” (priority 2006, dated 2020).
